Source: PMC9865752, “Design and Synthesis of (Z)-2-(Benzylamino)-5-benzylidenethiazol-4(5H)-one Derivatives as Tyrosinase Inhibitors and Their Anti-Melanogenic and Antioxidant Effects” (Molecules, 2023)
Where two headings read alike, the source gives them in different places.

Columns and labels:
[1] = biological target: mushroom tyrosinase; parameters: method as in PMID 26235587; settings: in the presence of L-tyrosine; cited from earlier work
[2] = SIN-1-induced ROS scavenging assay; settings: 20 µM; SIN-1 as ROS generator; DCFH-DA probe
Source text: The scavenging activities of the BABT derivatives 1–14 against ROS and peroxynitrite (ONOO^−) were investigated because the antioxidant activities of the compounds may modulate melanogenesis. To measure the ROS scavenging activities of BABT derivatives, 2′,7′-dichlorodihydrofluorescein diacetate (DCFH-DA) and 3-morpholinosydnonimine (SIN-1) were used as a fluorogenic probe and ROS generator, respectively. The reaction of DCFH-DA with esterase produces 2′,7′-dichlorodihydrofluorescein (DCFH), which generates the fluorescent compound 2′,7′-dichlorofluorescein (DCF) by reacting with ROS produced by SIN-1. Therefore, ROS scavenging activities were determined by measuring the DCF fluorescence remaining after the BABT derivatives scavenged the ROS generated by SIN-1. […] BABT derivatives and Trolox, the positive control, were used at a concentration of 20 µM.
The ROS scavenging activities of the BABT derivatives were measured using an oxidant-sensitive fluorescent probe. Derivatives or Trolox (10 µL; final concentration: 20 µM) were seeded in a black 96-well plate. Then, 10 µL of SIN-1 (10 µM) was added to induce radical species generation and mixed with 180 µL of sodium phosphate buffer (pH 7.4) containing 12.5 µM DCF-DA and 600 units of esterase. Fluorescence intensity was measured at emission and excitation wavelengths of 535 and 485 nm, respectively, using a fluorescence microplate reader (Berthold Technologies GmbH & Co., Wien, Austria). Trolox was used as the positive control.

[3] = test system: B16F10 cells; experiment: Cell viability (EZ-Cytox assay); assay type: cell-based, murine; settings: 0, 1, 2, 5, 10, 20 µM
Protocol: Before these experiments were performed, the influence of these derivatives on cytotoxicity in B16F10 cells was examined to determine their optimal concentration range for B16F10 cell experiments. The cytotoxicity of derivatives 7 and 8 at six concentrations (0, 1, 2, 5, 10, and 20 µM) was assessed using the EZ-Cytox assay.
Cytotoxicity assays in B16F10 cells were performed using the EZ-Cytox solution (EZ-3000, DoGenBio, Seoul, Republic of Korea). Briefly, B16F10 cells were seeded at a density of 1 × 10^4 cells per well and cultured at 37 °C in a 5% CO2 atmosphere for 24 h. […] Then, the EZ-Cytox solution (10 μL aliquot) was added to each well. After 2 h of incubation at 37 °C, the optical density of each well was measured at 450 nm using a microplate reader (VersaMax; Molecular Devices).

[4] = DPPH radical scavenging assay; settings: test samples 500 µM; DPPH 0.18 mM; 30 min in the dark
Protocol: DPPH is a light-sensitive compound containing free radicals. The DPPH assay is one of the most common methods for evaluating the antioxidant activity of a compound. The effects of BABT derivatives on DPPH radical scavenging activities were evaluated using L-ascorbic acid as a positive reference control. DPPH radical scavenging activities were measured after leaving the mixed samples (test samples of 500 µM plus DPPH solution of 0.18 mM) in the dark for 30 min. To determine the radical scavenging activities, the absorbance of the mixed samples was measured at 517 nm.
According to previously described methods, with minor modifications, the DPPH radical scavenging activities of BABT derivatives 1–14 were measured. A DPPH (0.2 mM) and methanol solution (180 µL) was mixed with 20 µL of a DMSO solution containing 5 mM BABT derivative, or with 20 µL of an aqueous solution of 5 mM L-ascorbic acid, in each well of a 96-well plate and kept at ambient temperature in the dark for 30 min. The optical density of each well was measured at 517 nm using a microplate reader (VersaMax; Molecular Devices). L-Ascorbic acid was used as a positive reference control, and the DPPH radical scavenging abilities of BABT derivatives were compared with those of L-ascorbic acid. All experiments were performed independently, thrice.

[5] = biological target: mushroom tyrosinase; experiment: Mushroom tyrosinase inhibition assay; assay type: biochemical; settings: for IC50: mean ± SEM of three experiments
Protocol: As mushroom tyrosinase is commercially available and relatively cheap, it is used as a tool for the identification of novel tyrosinase inhibitors. Here, we examined the tyrosinase inhibitory activities of the 14 BABT derivatives against mushroom tyrosinase in the presence of L-tyrosine or L-dopa as substrates.
Mushroom tyrosinase inhibitory activities of BABT derivatives were determined as described previously, with minor modifications. L-Tyrosine and L-dopa were used as substrates to evaluate the enzyme activity. […] Assay mixtures were incubated at 37 °C for 30 min, and dopachrome amounts synthesized were determined by measuring the optical density of each well at 475 nm using a microplate reader (VersaMax; Molecular Devices, Sunnyvale, CA, USA).

[6] = biological target: T1, mushroom tyrosinase (Agaricus bisporus, UniProt C7FF04); experiment: Kinetic studies of mushroom tyrosinase inhibition (Lineweaver–Burk and Dixon plots); assay type: biochemical; settings: substrate L-dopa
T1 construct: purchased
T1 sequence (C7FF04 1-392): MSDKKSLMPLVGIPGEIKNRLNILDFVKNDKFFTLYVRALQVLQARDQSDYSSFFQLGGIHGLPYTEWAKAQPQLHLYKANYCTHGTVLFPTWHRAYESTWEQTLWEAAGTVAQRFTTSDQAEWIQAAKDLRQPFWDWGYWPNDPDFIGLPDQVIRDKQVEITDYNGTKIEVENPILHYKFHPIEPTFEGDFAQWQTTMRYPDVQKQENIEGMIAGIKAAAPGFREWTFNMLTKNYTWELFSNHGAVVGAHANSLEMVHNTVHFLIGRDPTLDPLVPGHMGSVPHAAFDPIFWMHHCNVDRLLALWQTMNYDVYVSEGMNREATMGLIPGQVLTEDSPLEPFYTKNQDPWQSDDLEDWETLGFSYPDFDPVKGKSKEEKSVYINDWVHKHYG
Protocol: Kinetic studies using Lineweaver–Burk plots were performed using four different concentrations (0, 0.5, 1, and 2 µM) of the test derivatives (7 and 8) and five different concentrations (0.5, 1, 2, 4, and 8 mM for 7, and 1, 2, 4, 8, and 16 mM for 8) of L-dopa.
Lineweaver–Burk plots for 7 and 8 were transformed into the corresponding Dixon plots to determine their inhibition constant (Ki) values for the mushroom tyrosinase–inhibitor complex. […] The Ki values for the mushroom tyrosinase–inhibitor complex were obtained from the x-axis value of each convergence point.
Lineweaver–Burk plots of derivatives 7 and 8 were obtained in the presence of L-dopa as the substrate. Briefly, 20 µL aliquots of mushroom tyrosinase aqueous solution (200 units/mL) were added to each well of a 96-well plate containing 10 µL BABT derivative (7 or 8) DMSO solution (final concentrations: 0, 0.5, 1, and 2 µM) and 170 µL of an aqueous solution containing L-dopa (final concentrations: 1.0, 2.0, 4.0, 8.0, and 16.0 mM) and sodium phosphate buffer (pH 6.5, 17.2 mM). The initial rate of dopachrome formation was determined by examining the changes in absorbance at a wavelength of 475 nm (ΔOD475/min) using a microplate reader (VersaMax; Molecular Devices).

[7] = ABTS radical scavenging assay; settings: test samples 100 µM; 2 min in the dark
Protocol: An antioxidant assay using ABTS is also commonly used to assess the antioxidant activities of compounds. Donation of one electron from ABTS to potassium persulfate generates the ABTS radical cation. An ABTS radical scavenging activity assay was performed using 100 µM of BABT derivatives or Trolox (a positive reference control) by mixing test samples with ABTS radical cations obtained from a reaction of potassium persulfate and ABTS. ABTS radical scavenging activity was assessed by measuring the optical density at 734 nm after leaving the test sample–ABTS radical cation mixture in the dark for 2 min.
According to a previously described method, with minor modifications, the ABTS radical scavenging activities of BABT derivatives 1–14 were assessed. Briefly, an ABTS radical solution was prepared by mixing 10 mL of aqueous ABTS solution (7 mM) with 10 mL of potassium persulfate aqueous solution (2.45 mM), and the mixture was kept for 11–15 h in the dark at room temperature until the absorbance remained constant. Prior to the antioxidant assay experiments, the ABTS radical solution was diluted with water to adjust the absorbance at 734 nm to 0.70 ± 0.02. A 10 µL aliquot of BABT derivatives or Trolox at a concentration of 1000 µM was added to 90 µL of ABTS+ free radical solution in each well of a 96-well plate and incubated for 2 min in the dark at ambient temperature. The absorbance of each well was measured at 734 nm using a microplate reader (VersaMax; Molecular Devices). The ABTS+ radical scavenging activities of BABT derivatives were compared to those of Trolox. All experiments were carried out independently, thrice.

[8] = Peroxynitrite scavenging assay; settings: 20 µM; SIN-1 as generator; DHR123 probe
Protocol: The effects of the BABT derivatives on peroxynitrite scavenging activities were also examined using SIN-1 as an RNS generator and dihydrorhodamine (DHR123) as an ROS indicator. DHR123 was converted to fluorescent rhodamine 123 by peroxynitrite generated by SIN-1. Therefore, the peroxynitrite scavenging activities of 1–14 were assessed by measuring the fluorescence of rhodamine 123. BABT derivatives and penicillamine, the positive control, were used at a concentration of 20 µM.
The peroxynitrite scavenging activities of the BABT derivatives were assessed using the method developed by Kooy, involving the monitoring of highly fluorescent rhodamine 123, which was rapidly produced from non-fluorescent DHR123 in the presence of peroxynitrite. Rhodamine buffer (pH 7.4) was composed of 50 mM sodium phosphate dibasic, 50 mM sodium phosphate monobasic, 90 mM sodium chloride, 5 mM potassium chloride, and 100 µM DTPA. A 10 µL aliquot of BABT derivatives or PCA (final concentration: 20 µM) was seeded in a black 96-well plate. Then, 10 µL of SIN-1 (10 µM) was added to induce radical species generation and mixed with 180 µL of rhodamine buffer. Fluorescence intensity was measured at emission and excitation wavelengths of 535 and 485 nm, respectively, using a fluorescence microplate reader (Berthold Technologies GmbH & Co.). PCA was used as the positive control.

[9] = substrate L-tyrosine, read-out: IC50 (µM) L-Tyrosine

Structure (SMILES)	ROS scavenging activity (in words) [2]	DPPH radical scavenging activity, % inhibition [4]	IC50 [5, 9]	ABTS radical scavenging activity, % inhibition [7]	other results
O=C1N=C(Nc2nc3ccccc3s2)S/C1=C\c1ccc(O)cc1O [MHY2081]					IC50 [1]: 1.8 µM
COc1ccc(/C=C2\SC(NCc3ccccc3)=NC2=O)cc1O [Compound 7, (Z)-2-(benzylamino)-5-(3-hydroxy-4-methoxybenzylidene)thiazol-4(5H)-one]	moderate ROS scavenging activities	47%	10 ± 0.9 µM		cytotoxicity ([3]; 72 h): showed cytotoxicity at a concentration of 20 µM; cytotoxicity ([3]; up to 48 h): not cytotoxic at all concentrations; IC50 ([5]; substrate L-dopa, read-out: IC50 (µM) L-Dopa): 10.3 ± 0.24 µM; fold stronger tyrosinase inhibitory activity than derivative 5 ([5]; substrate L-tyrosine): 14.8 fold; Ki ([6]; Dixon plots, read-out: inhibition constant (Ki) for the mushroom tyrosinase–inhibitor complex): 3.1 µM; mode of inhibition ([6]; Lineweaver–Burk plots): competitive inhibitors
O=C1N=C(NCc2ccccc2)S/C1=C\c1ccc(O)c(O)c1 [Compound 9, (Z)-2-(benzylamino)-5-(3,4-dihydroxybenzylidene)thiazol-4(5H)-one]	strongly reduced the ROS levels enhanced by SIN-1	89%	> 300 µM	87%	fold more potent than kojic acid ([5]; substrate L-dopa): 2 fold; peroxynitrite scavenging activity (in words) [8]: strong ROS and peroxynitrite scavenging activities
Cc1c(C)c2c(c(C)c1O)CCC(C)(C(=O)O)O2 (stereo not drawn) [Trolox, reference compound]	reduced the ROS levels enhanced by SIN-1			99%	
